# In EP1976513B1 (priority 2006, dated 2007):
# Like-named read-outs stand apart in the source and are kept apart here.
# Legend:
# [1] = target: human serotonin reuptake transporter (Homo sapiens, UniProt P31645); assay: cell-based
# [2] = target: T1, human dopamine reuptake transporter (Homo sapiens, UniProt Q01959); assay: cell-based
# T1 construct: expressed in transfected cells; host or cells: CHO-K1 or HEK293
# [3] = Human IC50 (nM) hSERT, recombinant human serotonin transporter (SERT)
# [4] = recombinant human dopamine transporter (DAT), read-out: Human IC50 (nM) hDAT
# [5] = recombinant human serotonin transporter (SERT), read-out: Human IC50 (nM) hSERT
# T1 sequence (Q01959 whole entry): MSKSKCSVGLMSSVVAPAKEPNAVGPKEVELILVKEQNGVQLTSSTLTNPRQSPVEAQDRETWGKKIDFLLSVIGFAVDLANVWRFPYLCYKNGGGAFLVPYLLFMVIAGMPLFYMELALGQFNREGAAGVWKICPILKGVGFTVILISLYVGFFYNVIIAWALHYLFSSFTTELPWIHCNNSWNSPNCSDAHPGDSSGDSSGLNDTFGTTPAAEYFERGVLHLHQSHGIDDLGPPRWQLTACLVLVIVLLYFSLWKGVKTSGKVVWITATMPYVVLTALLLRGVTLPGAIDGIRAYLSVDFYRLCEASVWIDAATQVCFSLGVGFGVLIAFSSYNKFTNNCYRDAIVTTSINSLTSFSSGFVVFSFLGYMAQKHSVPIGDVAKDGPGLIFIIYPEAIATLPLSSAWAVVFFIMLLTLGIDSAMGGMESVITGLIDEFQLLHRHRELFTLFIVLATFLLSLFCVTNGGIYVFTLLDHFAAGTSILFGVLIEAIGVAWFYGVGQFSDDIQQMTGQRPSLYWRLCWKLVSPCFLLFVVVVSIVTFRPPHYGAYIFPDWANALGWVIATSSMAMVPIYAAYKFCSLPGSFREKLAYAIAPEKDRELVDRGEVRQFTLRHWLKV
# Sequence of human serotonin reuptake transporter (P31645 whole entry): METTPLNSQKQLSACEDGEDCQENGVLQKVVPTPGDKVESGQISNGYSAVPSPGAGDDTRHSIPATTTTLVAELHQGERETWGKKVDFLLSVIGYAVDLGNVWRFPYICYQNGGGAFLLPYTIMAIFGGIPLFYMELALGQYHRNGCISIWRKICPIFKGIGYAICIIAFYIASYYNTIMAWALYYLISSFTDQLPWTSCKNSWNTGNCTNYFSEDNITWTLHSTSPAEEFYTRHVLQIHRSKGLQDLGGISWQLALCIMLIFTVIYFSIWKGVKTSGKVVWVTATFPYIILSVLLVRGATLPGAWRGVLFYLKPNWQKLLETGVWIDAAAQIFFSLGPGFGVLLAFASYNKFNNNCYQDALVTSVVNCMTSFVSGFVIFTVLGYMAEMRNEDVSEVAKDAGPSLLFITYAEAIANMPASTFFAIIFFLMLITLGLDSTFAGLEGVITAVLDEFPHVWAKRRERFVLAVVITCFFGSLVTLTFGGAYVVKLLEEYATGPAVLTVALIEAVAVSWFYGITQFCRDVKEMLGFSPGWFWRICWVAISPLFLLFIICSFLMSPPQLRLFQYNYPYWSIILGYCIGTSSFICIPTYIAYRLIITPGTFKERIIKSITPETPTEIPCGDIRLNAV
SMILES,"IC50 [1, 3] [nM]","IC50 [2, 4] [nM]","IC50 [1, 5] [nM]",further results
"NCC1(c2ccc(C(F)(F)F)cc2)CCCCC1 [Compound 34, (1-(4-(trifluoromethyl)phenyl)-cyclohexyl)methanamine]",> 10000,5320,,
"NCC1(c2ccc3c(c2)OCO3)CCCCC1 [Compound 35, (1-(benzo[d][1,3]dioxol-5-yl)cyclohexyl)methanamine]",> 10000,4710,,
"NCC1(c2cccc(C(F)(F)F)c2)CCCCC1 [Compound 36, (1-(3-(trifluoromethyl)phenyl)-cyclohexyl)methanamine]",6550,> 10000,,
"NCC1(c2cccc(F)c2)CCCCC1 [Compound 37, (1-(3-fluorophenyl)cyclohexyl)methanamine]",> 10000,> 10000,,
"NCC1(c2ccc3cc(F)ccc3c2)CCCCC1 [Compound 39, (1-(6-fluoronaphthalen-2-yl)cyclohexyl)methanamine]",,2240,295,
"NCC1(c2ccc(F)c3ccccc23)CCCCC1 [Compound 40, (1-(4-fluoronaphthalen-1-yl)cyclohexyl)methanamine]",,2320,753,
"CNCC1(c2ccc(Cl)c(Cl)c2)CCC1 [Compound 42, 1-(1-(3,4-dichlorophenyl)cyclobutyl)-N-methylmethanamine]",,761,935,
"CSc1ccc(C2(CN(C)C)CCCCC2)cc1 [Compound 52, N,N-dimethyl-1-(1-(4-(methylthio)phenyl)cyclohexyl)methanamine]",,,44,IC50 ([2]; Human IC50 (nM) hDAT): 176 nM
"CNCC1(c2ccc(Cl)cc2Cl)CCCCC1 [Compound 65, 1-(1-(2,4-dichlorophenyl)cyclohexyl)-N-methylmethanamine]",1620,1940,,
"CN(C)CC1(c2ccc(Cl)cc2Cl)CCCCC1 [Compound 66, 1-(1-(2,4-dichlorophenyl)cyclohexyl)-N,N-dimethylmethanamine]",221,355,,
"CNCC1(c2ccc3cc(F)ccc3c2)CCCCC1 [Compound 67, 1-(1-(6-fluoronaphthalen-2-yl)cyclohexyl)-N-methylmethanamine]",230,1760,,
"CN(C)CC1(c2ccc3cc(F)ccc3c2)CCCCC1 [Compound 68, 1-(1-(6-fluoronaphthalen-2-yl)cyclohexyl)-N,N-dimethylmethanamine]",,343,19,
"CNCC1(c2ccc(F)c3ccccc23)CCCCC1 [Compound 69, 1-(1-(4-fluoronaphthalen-1-yl)cyclohexyl)-N-methylmethanamine]",,605,930,
"CN(C)CC1(c2ccc(F)c3ccccc23)CCCCC1 [Compound 70, 1-(1-(4-fluoronaphthalen-1-yl)cyclohexyl)-N,N-dimethylmethanamine]",,214,29,
"CN(C)CC1(c2ccc(Cl)c(Cl)c2)CC=CCC1 (stereo not shown) [Compound 72, 1-(1-(3,4-dichlorophenyl)cyclohex-3-enyl)-N,N-dimethylmethanamine]",,1.7,,IC50 ([1]; Human IC50 (nM) hSERT): 136 nM
"NCC1(c2ccc(Cl)c(Cl)c2)CCCC1 [Compound 87, (1-(3,4-dichlorophenyl)cyclopentyl)methanamine]",1470,139,,
"CNCC1(c2ccc(Cl)c(Cl)c2)CCCC1 [Compound 88, (1-(3,4-dichlorophenyl)cyclopentyl)-N-methylmethanamine]",,93,,IC50 ([1]; Human IC50 (nM) hSERT): 829 nM
"CNCC1(c2ccc(F)cc2)CCCCC1 [Compound 90, 1-(1-(4-fluorophenyl)cyclohexyl)-N-methylmethanamine]",839,3360,,
"NCC1(c2ccc(F)cc2)CCCCC1 [Compound 91, (1-(4-fluorophenyl)cyclohexyl)methaneamine]",> 10000,1830,,
"CNCC1(c2ccc(Cl)c(F)c2)CCCCC1 [Compound 95, (1-(4-chloro-3-fluorophenyl)cyclohexyl)-N-methylmethanamine]",480,324,,
"NCC1(c2ccc(Cl)c(F)c2)CCCCC1 [Compound 98, (1-(4-chloro-3-fluorophenyl)cyclohexyl)-methanamine]",> 10000,419,,
"CNCC1(c2ccc(C(F)(F)F)cc2)CCCCC1 [Compound 100, N-methyl-1-(1-(4-(trifluoromethyl)phenyl)-cyclohexyl)methanamine]",1500,3410,,
"CN(C)CC1(c2ccc3c(c2)OCO3)CCCCC1 [Compound 102, 1-(1-(benzo[d][1,3]dioxol-5-yl)cyclohexyl)-N,N-dimethylmethanamine]",195,420,,
"CNCC1(c2ccc3c(c2)OCO3)CCCCC1 [Compound 103, 1-(1-(benzo[d][1,3]dioxol-5-yl)cyclohexyl)-N-methylmethanamine]",3540,7740,,

SMILES,"IC50 [1, 3] [nM]","IC50 [2, 4] [nM]","IC50 [1, 5] [nM]",further results
"CNCC1(c2ccc(Cl)c(Cl)c2)CC=CC1 [Compound 168, 1-(1-(3,4-dichlorophenyl)cyclopent-3-enyl)-N-methylmethanamine]",1470,108,,
"NCC1(c2ccc(Cl)c(Cl)c2)CCCC(F)(F)C1 (stereo not shown) [Compound 204, (1-(3,4-dichlorophenyl)-3,3-difluorocyclohexyl)-methanamine]",2250,296,,
"NCC1(c2ccc3ccccc3c2)CCC(O)CC1 (stereo not shown) [Compound 207, 4-(aminomethyl)-4-(naphthalen-2-yl)cyclohexanol]",,1020,142,
"NCC1(c2ccc3ccccc3c2)CCC(O)CC1 (stereo not shown) [Compound 208, 4-(aminomethyl)-4-(naphthalen-2-yl)cyclohexanol]",,7670,1990,
"NCC1(c2ccc3ccccc3c2)CCC(Cl)CC1 (stereo not shown) [Compound 211, (4-chloro-1-(naphthalen-2-yl)cyclohexyl)methanamine]",,195,55,
"NCC1(c2ccc3ccccc3c2)CCC(F)CC1 (stereo not shown) [Compound 212, (4-fluoro-1-(naphthalen-2-yl)cyclohexyl)methanamine]",,75,91,
"NCC1(c2ccc3ccccc3c2)CCC(F)CC1 (stereo not shown) [Compound 213, (4-fluoro-1-(naphthalen-2-yl)cyclohexyl)methanamine]",,337,283,
"NCC1(c2ccc3c(c2)OCO3)CCC(O)CC1 (stereo not shown) [Compound 214, 4-(aminomethyl)-4-(benzo[d][1,3]dioxol-5-yl)cyclohexanol]",,> 10000,> 10000,
"CC1(O)CCC(CN)(c2ccc3c(c2)OCO3)CC1 (stereo not shown) [Compound 215, 4-(aminomethyl)-4-(benzo[d][1,3]dioxol-5-yl)-1-methylcyclohexanol]",,6240,4190,
"CC1(O)CCC(CN)(c2ccc3c(c2)OCO3)CC1 (stereo not shown) [Compound 216, 4-(aminomethyl)-4-(benzo[d][1,3]dioxol-5-yl)-1-methylcyclohexanol]",,> 10000,> 10000,
"NCC1(c2ccc3ccccc3c2)CCC(O)(CF)CC1 (stereo not shown) [Compound 217, 4-(aminomethyl)-1-(fluoromethyl)-4-(naphthalen-2-yl)cyclohexanol]",,1970,47,
"NCC1(c2ccc3ccccc3c2)CCC(O)(CF)CC1 (stereo not shown) [Compound 218, 4-(aminomethyl)-1-(fluoromethyl)-4-(naphthalen-2-yl)cyclohexanol]",,5590,480,
"NCC1(c2ccc(OC(F)(F)F)cc2)CCC(O)CC1 (stereo not shown) [Compound 220, 4-(aminomethyl)-4-(4-(trifluoromethoxy)phenyl)cyclohexanol]",,> 10000,6150,
"NCC1(c2ccc3ccccc3c2)CCC(F)(F)CC1 [Compound 221, (4,4-difluoro-1-(naphthalen-2-yl)cyclohexyl)methanamine]",,182,61,
"CNCC1(c2ccc3ccccc3c2)CCC(C)(O)CC1 (stereo not shown) [Compound 222, 1-methyl-4-((methylamino)methyl)-4-(naphthalen-2-yl)-cyclohexanol]",,,609,IC50 ([2]; read-out: Human IC50 (nM) hDAT): 2090 nM
"CNCC1(c2ccc3ccccc3c2)CCC(C)(O)CC1 (stereo not shown) [Compound 223, 1-methyl-4-((methylamino)methyl)-4-(naphthalen-2-yl)cyclohexanol]",,,73,IC50 ([2]; read-out: Human IC50 (nM) hDAT): 874 nM
"CN(C)CC1(c2ccc3ccccc3c2)CCC(C)(O)CC1 (stereo not shown) [Compound 224, 4-((dimethylamino)methyl)-1-methyl-4-(naphthalen-2-yl)cyclohexanol]",,993,69,
"CN(C)CC1(c2ccc3ccccc3c2)CCC(O)CC1 (stereo not shown) [Compound 228, 4-((dimethylamino)methyl)-4-(naphthalen-2-yl)cyclohexanol]",,,96,IC50 ([2]; read-out: Human IC50 (nM) hDAT): 1560 nM
"CN(C)CC1(c2ccc3ccccc3c2)CCC(O)CC1 (stereo not shown) [Compound 229, 4-((dimethylamino)methyl)-4-(naphthalen-2-yl)cyclohexanol]",,,11,IC50 ([2]; read-out: Human IC50 (nM) hDAT): 40 nM
"CN(C)CC1(c2ccc3ccccc3c2)CCC(Cl)CC1 (stereo not shown) [Compound 230, 1-(4-chloro-1-(naphthalen-2-yl)cyclohexyl)-N,N-dimethylmethanamine]",,11,30,
"CN(C)CC1(c2ccc3ccccc3c2)CCC(F)CC1 (stereo not shown) [Compound 233, 1-(4-fluoro-1-(naphthalen-2-yl)cyclohexyl)-N,N-dimethylmethanamine]",,3,37,
"CN(C)CC1(c2ccc3ccccc3c2)CCC(F)CC1 (stereo not shown) [Compound 235, 1-(4-fluoro-1-(naphthalen-2-yl)cyclohexyl)-N,N-dimethylmethanamine]",,92,9,
"CN(C)CC1(c2ccc3c(c2)OCO3)CCC(O)CC1 (stereo not shown) [Compound 238, 4-(benzo[d][1,3]dioxol-5-yl)-4-((dimethylamino)methyl)cyclohexanol]",,5720,1180,
